# Key:
# Assay in all cases: relative viability (nuclei count vs DMSO), 5 days (fraction); higher = more cells survive
# HARA = system: HARA
# Method in brief: (§1)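 After 5 days of treatment, lung cancer cells in 1536-well plates were fixed and stained in a single step (final 0.05% Triton X-100, 1% formaldehyde, 1 ug/ml Hoechst) and their nuclei counted on 4× images. Treatment had been applied by pin tool the day after seeding as one drug alone or as a fixed anchor-drug dose with five library-drug doses (not always all listed) in √10 steps. Relative viability is the nuclei count of treated wells divided by that of vehicle wells, and values are medians of duplicate plates.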
# LU99A = system: LU99A
# Method in brief: as §1
# NCI-H2405 = system: NCI-H2405
# Method in brief: as §1
# EMC-BAC-2 = system: EMC-BAC-2
# Method in brief: as §1
# NCI-H1755 = system: NCI-H1755
# Method in brief: as §1
# NCI-H460 = system: NCI-H460
# Method in brief: as §1
# EPLC-272H = system: EPLC-272H
# Method in brief: as §1
# NCI-H647 = system: NCI-H647
# Method in brief: as §1
# ChaGo-K-1 = system: ChaGo-K-1
# Method in brief: as §1
# EKVX = system: EKVX
# Method in brief: as §1
# SW 900 = system: SW 900
# Method in brief: as §1
# NCI-H596 = system: NCI-H596
# Method in brief: as §1
# COR-L 105 = system: COR-L 105
# Method in brief: as §1
# NCI-H1650 = system: NCI-H1650
# Method in brief: as §1
# NCI-H1993 = system: NCI-H1993
# Method in brief: as §1
# NCI-H1734 = system: NCI-H1734
# Method in brief: as §1
# RERF-LC-KJ = system: RERF-LC-KJ
# Method in brief: as §1
# A-427 = system: A-427
# Method in brief: as §1
# NCI-H358 = system: NCI-H358
# Method in brief: as §1
# LK-2 = system: LK-2
# Method in brief: as §1
smiles,measurement,setting,value
Cc1csc(=NC2CCCCC2)n1/N=C/c1ccc(O)c(O)c1O [MIM1] + COc1cc2c(Oc3ccc(NC(=O)C4(C(=O)Nc5ccc(F)cc5)CC4)cc3F)ccnc2cc1OCCCN1CCOCC1 [Foretinib] (partner 0.25 µM),relative viability,HARA; first compound 0.2 µM,0.954
same,relative viability,HARA; first compound 2 µM,0.991
same,relative viability,HARA; first compound 6.325 µM,0.868
same,relative viability,HARA; first compound 20 µM,0.131
same,relative viability,LU99A; first compound 0.2 µM,0.808
same,relative viability,LU99A; first compound 0.6325 µM,0.775
same,relative viability,LU99A; first compound 2 µM,0.751
same,relative viability,LU99A; first compound 6.325 µM,0.743
same,relative viability,LU99A; first compound 20 µM,0.407
same,relative viability,NCI-H2405; first compound 0.2 µM,1.05
same,relative viability,NCI-H2405; first compound 0.6325 µM,1.05
same,relative viability,NCI-H2405; first compound 2 µM,1
same,relative viability,NCI-H2405; first compound 6.325 µM,0.741
same,relative viability,NCI-H2405; first compound 20 µM,0.866
same,relative viability,EMC-BAC-2; first compound 0.2 µM,0.698
same,relative viability,EMC-BAC-2; first compound 0.6325 µM,1
same,relative viability,EMC-BAC-2; first compound 2 µM,0.963
same,relative viability,EMC-BAC-2; first compound 6.325 µM,0.697
same,relative viability,EMC-BAC-2; first compound 20 µM,0.449
same,relative viability,NCI-H1755; first compound 0.2 µM,0.882
same,relative viability,NCI-H1755; first compound 0.6325 µM,0.927
same,relative viability,NCI-H1755; first compound 2 µM,0.902
same,relative viability,NCI-H1755; first compound 6.325 µM,0.72
same,relative viability,NCI-H1755; first compound 20 µM,0.563
same,relative viability,NCI-H460; first compound 0.2 µM,0.954
same,relative viability,NCI-H460; first compound 0.6325 µM,0.987
same,relative viability,NCI-H460; first compound 2 µM,0.862
same,relative viability,NCI-H460; first compound 6.325 µM,0.493
same,relative viability,NCI-H460; first compound 20 µM,0.0555
same,relative viability,EPLC-272H; first compound 0.2 µM,0.779
same,relative viability,EPLC-272H; first compound 0.6325 µM,0.724
same,relative viability,EPLC-272H; first compound 2 µM,0.622
same,relative viability,EPLC-272H; first compound 6.325 µM,0.159
same,relative viability,EPLC-272H; first compound 20 µM,0.12
same,relative viability,NCI-H647; first compound 0.2 µM,1.16
same,relative viability,NCI-H647; first compound 0.6325 µM,1.12
same,relative viability,NCI-H647; first compound 6.325 µM,1
same,relative viability,NCI-H647; first compound 20 µM,0.703
same,relative viability,ChaGo-K-1; first compound 0.2 µM,0.973
same,relative viability,ChaGo-K-1; first compound 0.6325 µM,1
same,relative viability,ChaGo-K-1; first compound 2 µM,0.774
same,relative viability,ChaGo-K-1; first compound 6.325 µM,0.771
same,relative viability,ChaGo-K-1; first compound 20 µM,0.282
same,relative viability,EKVX; first compound 0.2 µM,0.766
same,relative viability,EKVX; first compound 0.6325 µM,0.234
same,relative viability,EKVX; first compound 2 µM,0.75
same,relative viability,EKVX; first compound 6.325 µM,0.379
same,relative viability,EKVX; first compound 20 µM,0.422
same,relative viability,SW 900; first compound 0.2 µM,1.17
same,relative viability,SW 900; first compound 0.6325 µM,0.864
same,relative viability,SW 900; first compound 2 µM,0.854
same,relative viability,SW 900; first compound 6.325 µM,0.917
same,relative viability,SW 900; first compound 20 µM,0.443
same,relative viability,NCI-H596; first compound 0.2 µM,0.886
same,relative viability,NCI-H596; first compound 0.6325 µM,0.741
same,relative viability,NCI-H596; first compound 2 µM,0.858
same,relative viability,NCI-H596; first compound 6.325 µM,0.848
same,relative viability,NCI-H596; first compound 20 µM,0.636
same,relative viability,COR-L 105; first compound 0.2 µM,1.02
same,relative viability,COR-L 105; first compound 0.6325 µM,0.821
same,relative viability,COR-L 105; first compound 2 µM,1.19
same,relative viability,COR-L 105; first compound 6.325 µM,1.08
same,relative viability,COR-L 105; first compound 20 µM,0.774
same,relative viability,NCI-H1650; first compound 0.2 µM,1.16
same,relative viability,NCI-H1650; first compound 0.6325 µM,1.12
same,relative viability,NCI-H1650; first compound 2 µM,0.832
same,relative viability,NCI-H1650; first compound 6.325 µM,0.265
same,relative viability,NCI-H1650; first compound 20 µM,0.142
same,relative viability,NCI-H1993; first compound 0.2 µM,0.7
same,relative viability,NCI-H1993; first compound 0.6325 µM,0.715
same,relative viability,NCI-H1993; first compound 2 µM,0.671
same,relative viability,NCI-H1993; first compound 6.325 µM,0.659
same,relative viability,NCI-H1993; first compound 20 µM,0.64
same,relative viability,NCI-H1734; first compound 0.2 µM,0.884
same,relative viability,NCI-H1734; first compound 0.6325 µM,0.886
same,relative viability,NCI-H1734; first compound 2 µM,0.772
same,relative viability,NCI-H1734; first compound 6.325 µM,0.478
same,relative viability,NCI-H1734; first compound 20 µM,0.255
same,relative viability,RERF-LC-KJ; first compound 0.2 µM,0.887
same,relative viability,RERF-LC-KJ; first compound 0.6325 µM,0.808
same,relative viability,RERF-LC-KJ; first compound 2 µM,0.803
same,relative viability,RERF-LC-KJ; first compound 6.325 µM,0.637
same,relative viability,RERF-LC-KJ; first compound 20 µM,0.24
same,relative viability,A-427; first compound 0.2 µM,1.15
same,relative viability,A-427; first compound 2 µM,1.05
same,relative viability,A-427; first compound 6.325 µM,1.07
same,relative viability,A-427; first compound 20 µM,0.25
same,relative viability,NCI-H358; first compound 0.2 µM,0.646
same,relative viability,NCI-H358; first compound 0.6325 µM,0.758
same,relative viability,NCI-H358; first compound 2 µM,0.623
same,relative viability,NCI-H358; first compound 6.325 µM,0.348
same,relative viability,NCI-H358; first compound 20 µM,0.149
same,relative viability,LK-2; first compound 0.2 µM,1.46
same,relative viability,LK-2; first compound 2 µM,1.33
same,relative viability,LK-2; first compound 6.325 µM,1.17
same,relative viability,LK-2; first compound 20 µM,0.218
